What was measured:
Format in all cases: in vivo
[1] = tested on: Foxtail, Giant (giant foxtail, Setaria faberi); assay: Test A1 postemergence, Foxtail, Giant; details: Postemergence
From the text: (§1) Seeds of plant species selected from, blackgrass (Alopecurus myosuroides), corn (Zea mays), Foxtail, Giant (giant foxtail, Setaria faberi), goosegrass (Eleusine indica), kochia (Bassia scoparia), Oat, Wild (wild oat, Avena fatua), Pigweed, Palmer (palmer amaranth, palmer pigweed, Amaranthus palmeri), ragweed (common ragweed, Ambrosia artemisiifolia), Ryegrass, Italian (Italian ryegrass, Lolium multiflorum), soybean (Glycine max), and wheat (Triticum aestivum) were planted into a blend of loam soil and sand and treated preemergence with a directed soil spray using test chemicals formulated in a non-phytotoxic solvent mixture which included a surfactant. At the same time, plants selected from these crop and weed species and also galium (catchweed bedstraw, Galium aparine) and horseweed (Erigeron canadensis) were planted in pots containing the same blend of loam soil and sand and treated with postemergence applications of test chemicals formulated in the same manner. Plants ranged in height from 2 to 10 cm and were in the one- to two-leaf stage for the postemergence treatment. […] A dash (-) response means no test result.

[2] = tested on: Pigweed, Palmer (palmer amaranth, palmer pigweed, Amaranthus palmeri); assay: Test A1 postemergence, Pigweed, Palmer; details: Postemergence
From the text: as §1

[3] = tested on: soybean (Glycine max); assay: Test A1 postemergence, soybean; details: Postemergence
From the text: as §1

[4] = tested on: Foxtail, Giant (giant foxtail, Setaria faberi); assay: Test A1 preemergence, Foxtail, Giant
From the text: as §1

[5] = tested on: ragweed (common ragweed, Ambrosia artemisiifolia); assay: Test A1 postemergence, ragweed; details: Postemergence
From the text: as §1

[6] = tested on: Ryegrass, Italian (Italian ryegrass, Lolium multiflorum); assay: Test A1 preemergence, Ryegrass, Italian
From the text: as §1

[7] = tested on: soybean (Glycine max); assay: Test A1 preemergence, soybean
From the text: as §1

[8] = tested on: ragweed (common ragweed, Ambrosia artemisiifolia); assay: Test A1 preemergence, ragweed
From the text: as §1

[9] = tested on: rice (Oryza sativa); assay: Test B1 flooded paddy test, rice; details: 250 g ai/ha, Flood, applied to paddy water, 2-leaf stage, visually evaluated after 10 to 14 days
From the text: (§2) A dash (-) response means no test result.

[10] = tested on: Ryegrass, Italian (Italian ryegrass, Lolium multiflorum); assay: Test A1 postemergence, Ryegrass, Italian; details: Postemergence
From the text: as §1

[11] = tested on: corn (Zea mays); assay: Test A1 preemergence, corn
From the text: as §1

[12] = tested on: ducksalad (Heteranthera limosa); assay: Test B1 flooded paddy test, ducksalad; details: 250 g ai/ha, Flood, applied to paddy water, 2-leaf stage, visually evaluated after 10 to 14 days
From the text: as §2

[13] = tested on: wheat (Triticum aestivum); assay: Test A1 preemergence, wheat
From the text: as §1

[14] = tested on: wheat (Triticum aestivum); assay: Test A1 postemergence, wheat; details: Postemergence
From the text: as §1

[15] = tested on: kochia (Bassia scoparia); assay: Test A1 postemergence, kochia; details: Postemergence
From the text: as §1

[16] = tested on: galium (catchweed bedstraw, Galium aparine); assay: Test A1 postemergence, galium; details: Postemergence
From the text: as §1

[17] = tested on: blackgrass (Alopecurus myosuroides); assay: Test A1 preemergence, blackgrass
From the text: as §1

[18] = tested on: goosegrass (Eleusine indica); assay: Test A1 preemergence, goosegrass
From the text: as §1

[19] = tested on: goosegrass (Eleusine indica); assay: Test A1 postemergence, goosegrass; details: Postemergence
From the text: as §1

[20] = tested on: blackgrass (Alopecurus myosuroides); assay: Test A1 postemergence, blackgrass; details: Postemergence, 0 to 100 scale (0 no effect, 100 complete control)
From the text: as §1

[21] = tested on: Oat, Wild (wild oat, Avena fatua); assay: Test A1 preemergence, Oat, Wild
From the text: as §1

[22] = tested on: Oat, Wild (wild oat, Avena fatua); assay: Test A1 postemergence, Oat, Wild; details: Postemergence
From the text: as §1

[23] = tested on: kochia (Bassia scoparia); assay: Test A1 preemergence, kochia
From the text: as §1

[24] = tested on: Pigweed, Palmer (palmer amaranth, palmer pigweed, Amaranthus palmeri); assay: Test A1 preemergence, Pigweed, Palmer
From the text: as §1

[25] = tested on: corn (Zea mays); assay: Test A1 postemergence, corn; details: Postemergence
From the text: as §1

[26] = tested on: barnyardgrass (Echinochloa crus-galli); assay: Test B1 flooded paddy test, barnyardgrass; details: 250 g ai/ha, Flood, applied to paddy water, 2-leaf stage, visually evaluated after 10 to 14 days
From the text: as §2

[27] = 31 g ai/ha, 0 to 100 scale (0 no effect, 100 complete control), 10 days
[28] = 31 g ai/ha, 0 to 100 scale (0 no effect, 100 complete control)
[29] = 125 g ai/ha, 0 to 100 scale, 0 no effect, 100 complete control

## Cc1cc(C)c(N(COC(=O)C(C)(C)C)S(=O)(=O)C(F)(F)F)cc1C1=NOC2(C)CCCC12 (centres unmarked) [Compound 341]
[1]; [27]
  Plant response rating, Foxtail, Giant: 0
[1]; 125 g ai/ha, 0 to 100 scale
  Plant response rating, Foxtail, Giant: 20
[2]; [27]
  Plant response rating, Pigweed, Palmer: 0
[2]; 125 g ai/ha, 0 to 100 scale
  Plant response rating, Pigweed, Palmer: 20
[3]; [27]
  Plant response rating, Soybean: 40
[3]; 125 g ai/ha, 0 to 100 scale
  Plant response rating, Soybean: 50
[4]; [28]
  Plant response rating, Foxtail, Giant: 0
[4]; [29]
  Plant response rating, Foxtail, Giant: 50
[5]; [27]
  Plant response rating, Ragweed: 60
[5]; 125 g ai/ha, 0 to 100 scale
  Plant response rating, Ragweed: 80
[6]; [28]
  Plant response rating, Ryegrass, Italian: 0
[6]; [29]
  Plant response rating, Ryegrass, Italian: 40
[7]; [28]
  Plant response rating, Soybean: 0
[7]; [29]
  Plant response rating, Soybean: 0
[8]; [28]
  Plant response rating, Ragweed: 0
[8]; [29]
  Plant response rating, Ragweed: 0
[9]
  Plant response rating, Rice (0 to 100 scale, 0 is no effect, 100 is complete control): 55
[10]; [27]
  Plant response rating, Ryegrass, Italian: 0
[10]; 125 g ai/ha, 0 to 100 scale
  Plant response rating, Ryegrass, Italian: 0
[11]; [28]
  Plant response rating, Corn: 0
[11]; [29]
  Plant response rating, Corn: 0
[12]
  Plant response rating, Ducksalad (0 to 100 scale, 0 is no effect, 100 is complete control): 45
[13]; [28]
  Plant response rating, Wheat: 0
[13]; [29]
  Plant response rating, Wheat: 0
[14]; [27]
  Plant response rating, Wheat: 0
[14]; 125 g ai/ha, 0 to 100 scale
  Plant response rating, Wheat: 70
[15]; [27]
  Plant response rating, Kochia: 20
[15]; 125 g ai/ha, 0 to 100 scale
  Plant response rating, Kochia: 30
[16]; [27]
  Plant response rating, Galium: 50
[16]; 125 g ai/ha, 0 to 100 scale
  Plant response rating, Galium: 80
[17]; [28]
  Plant response rating, Blackgrass: 0
[17]; [29]
  Plant response rating, Blackgrass: 30
[18]; [28]
  Plant response rating, Goosegrass: 30
[18]; [29]
  Plant response rating, Goosegrass: 100
[19]; [27]
  Plant response rating, Goosegrass: 0
[19]; 125 g ai/ha, 0 to 100 scale
  Plant response rating, Goosegrass: 60
[20]; 31 g ai/ha, 10 days
  Plant response rating, Blackgrass: 0
[20]; 125 g ai/ha
  Plant response rating, Blackgrass: 0
[21]; [28]
  Plant response rating, Oat, Wild: 0
[21]; [29]
  Plant response rating, Oat, Wild: 0
[22]; [27]
  Plant response rating, Oat, Wild: 0
[22]; 125 g ai/ha, 0 to 100 scale
  Plant response rating, Oat, Wild: 20
[23]; [28]
  Plant response rating, Kochia: 0
[23]; [29]
  Plant response rating, Kochia: 40
[24]; [28]
  Plant response rating, Pigweed, Palmer: 0
[24]; [29]
  Plant response rating, Pigweed, Palmer: 20
[25]; [27]
  Plant response rating, Corn: 0
[25]; 125 g ai/ha, 0 to 100 scale
  Plant response rating, Corn: 0
[26]
  Plant response rating, Barnyardgrass (0 to 100 scale, 0 is no effect, 100 is complete control): 95

## CCC1ON=C(c2cc(N(C(=O)OCC(C)C)S(=O)(=O)C(F)(F)F)c(C)cc2C)C1CC (centres unmarked) [Compound 348]
[1]; [27]
  Plant response rating, Foxtail, Giant: 20
[1]; 125 g ai/ha, 0 to 100 scale
  Plant response rating, Foxtail, Giant: 30
[2]; [27]
  Plant response rating, Pigweed, Palmer: 0
[2]; 125 g ai/ha, 0 to 100 scale
  Plant response rating, Pigweed, Palmer: 70
[3]; [27]
  Plant response rating, Soybean: 50
[3]; 125 g ai/ha, 0 to 100 scale
  Plant response rating, Soybean: 90
[4]; [28]
  Plant response rating, Foxtail, Giant: 30
[4]; [29]
  Plant response rating, Foxtail, Giant: 90
[5]; [27]
  Plant response rating, Ragweed: 10
[5]; 125 g ai/ha, 0 to 100 scale
  Plant response rating, Ragweed: 60
[6]; [28]
  Plant response rating, Ryegrass, Italian: 0
[6]; [29]
  Plant response rating, Ryegrass, Italian: 70
[7]; [28]
  Plant response rating, Soybean: 30
[7]; [29]
  Plant response rating, Soybean: 40
[8]; [28]
  Plant response rating, Ragweed: 0
[8]; [29]
  Plant response rating, Ragweed: 10
[9]
  Plant response rating, Rice (0 to 100 scale, 0 is no effect, 100 is complete control): 0
[10]; [27]
  Plant response rating, Ryegrass, Italian: 0
[10]; 125 g ai/ha, 0 to 100 scale
  Plant response rating, Ryegrass, Italian: 40
[11]; [28]
  Plant response rating, Corn: 0
[11]; [29]
  Plant response rating, Corn: 10
[12]
  Plant response rating, Ducksalad (0 to 100 scale, 0 is no effect, 100 is complete control): 40
[13]; [28]
  Plant response rating, Wheat: 0
[13]; [29]
  Plant response rating, Wheat: 30
[14]; [27]
  Plant response rating, Wheat: 0
[14]; 125 g ai/ha, 0 to 100 scale
  Plant response rating, Wheat: 60
[15]; [27]
  Plant response rating, Kochia: 20
[15]; 125 g ai/ha, 0 to 100 scale
  Plant response rating, Kochia: 70
[16]; [27]
  Plant response rating, Galium: 60
[16]; 125 g ai/ha, 0 to 100 scale
  Plant response rating, Galium: 80
[17]; [28]
  Plant response rating, Blackgrass: 30
[17]; [29]
  Plant response rating, Blackgrass: 70
[18]; [28]
  Plant response rating, Goosegrass: 30
[18]; [29]
  Plant response rating, Goosegrass: 90
[19]; [27]
  Plant response rating, Goosegrass: 0
[19]; 125 g ai/ha, 0 to 100 scale
  Plant response rating, Goosegrass: 30
[20]; 31 g ai/ha, 10 days
  Plant response rating, Blackgrass: 0
[20]; 125 g ai/ha
  Plant response rating, Blackgrass: 90
[21]; [28]
  Plant response rating, Oat, Wild: 0
[21]; [29]
  Plant response rating, Oat, Wild: 10
[22]; [27]
  Plant response rating, Oat, Wild: 0
[22]; 125 g ai/ha, 0 to 100 scale
  Plant response rating, Oat, Wild: 20
[23]; [28]
  Plant response rating, Kochia: 0
[23]; [29]
  Plant response rating, Kochia: 30
[24]; [28]
  Plant response rating, Pigweed, Palmer: 10
[24]; [29]
  Plant response rating, Pigweed, Palmer: 90
[25]; [27]
  Plant response rating, Corn: 0
[25]; 125 g ai/ha, 0 to 100 scale
  Plant response rating, Corn: 20
[26]
  Plant response rating, Barnyardgrass (0 to 100 scale, 0 is no effect, 100 is complete control): 95

— patent publication US20230278972A1, “SUBSTITUTED HALOALKYL SULFONANILIDE HERBICIDES” (FMC Corporation, priority 2020, published 2023)
